The test system of data set [1] is human erythrocytes. In words: Hemolytic activity. It is filed as cell-based. As to conditions: for ED50, Erythrocytes: 1 h incubation at 37 °C, 50% hemolysis. On the procedure:
Erythrocytes were obtained from human blood (AB(IV) Rh+) by centrifugation with phosphate-buffered saline (PBS) (pH 7.4) at 4 °C for 5 min by 450 g on a LABOFUGE 400R centrifuge (Heraeus, Hanau, Germany) three times. Then, the erythrocytes residue was resuspended in ice cold phosphate saline buffer (pH 7.4) to a final optical density of 1.5 at 700 nm and kept on ice. For the hemolytic assay, 180 µL of erythrocyte suspension was mixed with 20 µL of test compound solution, as well as control, chitonoidoside L [33], in V-bottom 96-well plates. After 1 h of incubation at 37 °C, the plates were exposed to centrifugation for 10 min at 900 g in a laboratory LMC-3000 centrifuge (Biosan, Riga, Latvia). Then, 100 µL of supernatant was carefully decanted and transferred into new flat plates. The values of the lysis of the erythrocytes were found by measuring the concentration of hemoglobin in the supernatant with a Multiskan FC microplate photometer (Thermo Fisher Scientific, Waltham, MA, USA); λ = 570 nm. […] All the experiments were carried out in triple repetitions; p < 0.01.

In data set [2] the test system is MDA-MB-231 cells. The data set can be described thus: Colony formation (clonogenic) assay. It is filed as cell-based, human. As to conditions: Homo sapiens; MDA-MB-231, concentration 2 μM; read-out: Inhibition of colony growth, % of the control. The procedure: The influence of glycosides on the proliferation of MDA-MB-231 cells was analyzed by clonogenic assay. Briefly, MDA-MB-231 cells were cultured on 6-well plates at a density of 1 × 10^3 cells per well in control media (MEM media, 10% FBS, 10,000 U/mL of penicillin and 10,000 μg/mL of streptomycin) or in media supplemented with different concentrations of glycosides. Cells were incubated for one week at 37 °C with 5% CO2 until the cells in the control plates formed colonies that were visible to the eye and were of a substantial size (at least 50 cells per colony). For fixation and staining, the media were removed and the cells were washed twice with PBS. The colonies were fixed with methanol for 25 min, then washed with PBS and stained with 0.5% crystal violet solution for 25 min at room temperature. The plates were then washed with water and air dried.

Data set [3] can be described thus: Cytotoxic activity (MTT assay). As to conditions: human. The class given is cell-based, human. On the procedure:
(§1) After incubation, the glycosides with medium were replaced by 100 μL of fresh medium. Then, 10 μL of MTT (3-(4,5-dimethylthiazol-2-yl)-2,5-diphenyltetrazolium bromide) (Sigma-Aldrich, St. Louis, MO, USA) stock solution (5 mg/mL) was added to each well, followed by incubation of the microplate for 4 h. After this procedure, 100 μL of SDS-HCl solution (1 g SDS/10 mL d-H2O/17 μ[…] HCl) was added to each well and incubated for 18 h. The absorbance of the converted dye formazan was determined with a Multiskan FC microplate photometer (Thermo Fisher Scientific, Waltham, MA, USA) at 570 nm.

Data set [4] has as its system MDA-MB-231 cells. The data set can be described thus: Wound scratch migration assay. The class given is cell-based, human. The source says: To analyze the influence of the tested compounds on tumor cell migration, MDA-MB-231 cells attached to the plate’s plastic bottom were separated by a silicone insert from special migration plates (Culture-insert 2 Well 24, ibiTreat); then, the insert was removed, leaving a gap of 500 ± 50 μm (according to the manufacturer’s data) between the cells. The cells were washed twice by PBS to remove cell debris and floating cells and loaded with a fluorescent probe, a (5,6)-carboxyfluorescein succinimidyl ester (CFDA SE) dye (LumiTrace CFDA SE kit, Lumiprobe, Moscow, Russia). The initial solution of CFDA SE at a concentration of 5 mM in DMSO was dissolved in PBS to prepare a 10 μM solution and was added to the cells for 5 min at 37 °C; then, the cells were washed twice with PBS, and fresh culture medium was added. After that, the cells were treated with various concentrations of glycosides and left for 8 and 24 h. Cells treated with culture medium only were used as control. Cell migration into the wound area was then observed under a fluorescence microscope (MIB-2-FL, LOMO, Saint Peterburg, Russia) with an objective ×10 magnification.

A short description of data set [5]: Cytotoxic activity (MTS assay). It is filed as cell-based, human. As to conditions: human. On the procedure:
Then, the cells were incubated with 10 µL MTS ([3-(4,5-dimethylthiazol-2-yl)-5-(3-carboxymethoxyphenyl)-2-(4-sulfophenyl)-2H-tetrazolium) for 4 h, and the absorbance in each well was determined at 490/630 nm with a PHERA star FS plate reader (BMG Labtech, Ortenberg, Germany). The experiments were conducted in triplicate.
For orientation: Tetrazolium dyes change colour on reduction, which living cells bring about.

Data set [6] is described as follows: Cytotoxic activity (MTT assay). It is filed as cell-based, human. As to conditions: human. The procedure:
as §1
This is another data set of the same source.

The nature of data set [7]: Cytotoxic activity (MTT assay). It is filed as cell-based, human. Conditions: human. The procedure: as §1
The source holds these as a separate data set.

The nature of data set [8]: Cytotoxic activity (MTT assay). Conditions: human. The class given is cell-based, human. On the procedure: as §1
This is another data set of the same source.

Data set [9] concerns cancer cell lines. In words: Cytotoxic action against cancer cell lines (summary in words). The class given is cell-based, human. As to conditions: cancer cell lines HL-60, MCF-7, T-47D, MDA-MB-231. The procedure:
All the substances were tested in concentrations from 0.1 µM to 50 µM. Cisplatin was used as positive control. The cell suspension (180 µL) and solutions (20 µL) of tested glycosides in different concentrations were injected in wells of 96-well plates (MCF-7, T-47D, MDA-MB-231, and HEK293—7 × 10^3 cells/well) and incubated at 37 °C for 24 h in an atmosphere with 5% CO2. Glycosides 1 and 2, cucumarioside A0-1, and okhotoside A1-1 at concentrations of 1.25–10.0 μM were incubated with MDA-MB-231 cells at 37 °C for 24, 48, and 72 h in an atmosphere with 5% CO2. After incubation, the glycosides with medium were replaced by 100 µL of fresh medium. Then, 10 µL of MTT (3-(4,5-dimethylthiazol-2-yl)-2,5-diphenyltetrazolium bromide) (Sigma-Aldrich, St. Louis, MO, USA) stock solution (5 mg/mL) was added to each well, followed by incubation of the microplate for 4 h. After this procedure, 100 µL of SDS-HCl solution (1 g SDS/10 mL d-H2O/17 µL 6 N HCl) was added to each well and incubated for 18 h. The absorbance of the converted dye formazan was determined with a Multiskan FC microplate photometer (Thermo Fisher Scientific, Waltham, MA, USA) at 570 nm. […] The experiments were conducted in triplicate; p < 0.05.
Then, the cells were incubated with 10 µL MTS ([3-(4,5-dimethylthiazol-2-yl)-5-(3-carboxymethoxyphenyl)-2-(4-sulfophenyl)-2H-tetrazolium) for 4 h, and the absorbance in each well was determined at 490/630 nm with a PHERA star FS plate reader (BMG Labtech, Ortenberg, Germany). The experiments were conducted in triplicate. The results were presented as the percentage of inhibition that produced a reduction in absorbance after tested glycosides treatment compared to the nontreated cells (negative control); p < 0.01.

The record followed here is article PMC10342010, “Djakonoviosides A, A1, A2, B1–B4 — Triterpene Monosulfated Tetra- and Pentaosides from the Sea Cucumber Cucumaria djakonovi: The First Finding of a Hemiketal Fragment in the Aglycones; Activity against Human Breast Cancer Cell Lines” (International Journal of Molecular Sciences, 2023).

Usually EC50 stands for the concentration that produces a half-maximal response. Usually IC50 stands for the concentration at which inhibition is half-maximal. Low readings indicate inhibition by little substance, high ones a need for much substance.

Counter-ions that a name gives are not always drawn.

Turning to `CO[C@@H]1[C@@H](O)[C@H](O[C@@H]2[C@@H](O)[C@H](O[C@H]3[C@H](O)[C@@H](O)[C@H](O[C@H]4[C@H](O[C@H]5CC[C@]6(C)[C@@H]7CCC89C(=O)O[C@@](C)([C@H](O)C(=O)CC(C)C)[C@H]8[C@@H](OC(C)=O)C[C@@]9(C)C7=CC[C@H]6C5(C)C)OC[C@@H](OS(=O)(=O)O)[C@@H]4O)O[C@@H]3C)OC[C@H]2O)O[C@H](CO)[C@H]1O` (stereo partly drawn) [djakonovioside A1 (2), 3β-O-[3-O-methyl-β-D-glucopyranosyl-(1→3)-β-D-xylopyranosyl-(1→4)-β-D-quinovopyranosyl-(1→2)-4-O-sodium sulfate-β-D-xylopyranosyl}-16β-acetoxy,22S-hydroxy,23-oxo-holost-7-en], the “ED50, Erythrocytes” value in [1] is on record as 2.26 ± 0.25 µM. Also, the inhibition at 2 µM in [2] came to 19.2 ± 0.25%. Besides, in data set [3], the EC50 at 48 h was 7.33 µM and the EC50 at 72 h came out at 6.25 µM. Moreover, the inhibition at 2 µM in data set [4] (Homo sapiens, MDA-MB-231, 2 μM, 24 h incubation, read-out: Inhibition of migration as compared to control) is 79.5 ± 9.12%. In [5], this molecule registered an IC50 at 24 h of 4.44 ± 0.37 µM.
Consider `COC1C(O)C(CO)OC(OC2C(O)COC(OC3C(C)OC(OC4C(OC5CCC6(C)C7CCC89C(=O)OC%10(C)C(O)C(O)(CC(C)C)OC(CC8(C)C7=CCC6C5(C)C)C%109)OCC(OS(=O)(=O)O)C4O)C(O)C3O)C2O)C1O` [djakonovioside A2 (3), 3β-O-[3-O-methyl-β-D-glucopyranosyl-(1→3)-β-D-xylopyranosyl-(1→4)-β-D-quinovopyranosyl-(1→2)-4-O-sodium sulfate-β-D-xylopyranosyl}-22S-hydroxyholost-7-en-23R,16β-hemiketal], for which the “Hemolytic action (in words)” value in data set [1] is “moderately hemolytic”. Further, the “ED50, Erythrocytes” value in [1] came out at 30.86 ± 0.97 µM. Besides, the half-inhibitory concentration (IC50) at 24 h in [3], in [6], in [7], in [8] and in [5] was over 50 µM throughout. For the same molecule, the “Activity against cancer cells (in words)” value in data set [9] is “inactive”.
With `CO[C@@H]1[C@@H](O)[C@H](O[C@@H]2[C@@H](O)[C@H](O[C@H]3[C@H](O)[C@@H](O)[C@H](O[C@H]4[C@H](O[C@H]5CC[C@]6(C)[C@@H]7CCC89C(=O)O[C@@](C)(C[C@@H](O)CC(C)C)[C@H]8[C@@H](OC(C)=O)C[C@@]9(C)C7=CC[C@H]6C5(C)C)OC[C@@H](OS(=O)(=O)O)[C@@H]4O)O[C@@H]3C)OC[C@H]2O)O[C@H](CO)[C@H]1O` (stereo partly drawn) [djakonovioside A (1), 3β-O-[3-O-methyl-β-D-glucopyranosyl-(1→3)-β-D-xylopyranosyl-(1→4)-β-D-quinovopyranosyl-(1→2)-4-O-sodium sulfate-β-D-xylopyranosyl}-16β-acetoxy,23S-hydroxyholost-7-en], the “ED50, Erythrocytes” value in [1] worked out at 2.46 ± 0.22 µM. Moreover, the inhibition at 2 µM in [2] was found to be 41.4 ± 3.16%. In data set [3], this molecule had an EC50 at 48 h of 4.45 µM and an EC50 at 72 h of 3.77 µM. In [4] (MDA-MB-231, 1 μM, 24 h), the “Blockage of migration in relation to control” value is given as 79.92 ± 0.27%. In addition, 6.05 ± 0.17 µM corresponded to half-maximal inhibition in data set [5] (IC50 at 24 h).
Consider `CO[C@@H]1[C@@H](O)[C@H](O[C@@H]2[C@@H](O)[C@H](O[C@H]3[C@H](O)[C@@H](O[C@@H]4OC[C@@H](O)[C@H](O)[C@H]4O)[C@H](O[C@H]4[C@H](O[C@H]5CC[C@]6(C)[C@@H]7CCC89C(=O)O[C@@](C)([C@H](O)C(=O)CC(C)C)[C@H]8[C@@H](OC(C)=O)C[C@@]9(C)C7=CC[C@H]6C5(C)C)OC[C@@H](OS(=O)(=O)O)[C@@H]4O)O[C@@H]3C)OC[C@H]2O)O[C@H](CO)[C@H]1O` (stereo partly drawn) [djakonovioside B1 (4), 3β-O-{3-O-methyl-β-D-glucopyranosyl-(1→3)-β-D-xylopyranosyl-(1→4)-[(1→2)-β-D-xylopyranosyl]-β-D-quinovopyranosyl-(1→2)-4-O-sodium sulfate-β-D-xylopyranosyl}-16β-acetoxy,22S-hydroxy,23-oxo-holost-7-en], for which the “ED50, Erythrocytes” value in [1] was determined as 6.03 ± 0.47 µM. Moreover, the IC50 at 24 h in [5] came to 20.1 ± 0.8 µM.
Regarding `COC1C(O)C(CO)OC(OC2C(O)COC(OC3C(C)OC(OC4C(OC5CCC6(C)C7CCC89C(=O)OC%10(C)CC(O)(CC(C)C)OC(CC8(C)C7=CCC6C5(C)C)C%109)OCC(OS(=O)(=O)O)C4O)C(OC4OCC(O)C(O)C4O)C3O)C2O)C1O` [djakonovioside B2 (5), 3β-O-{3-O-methyl-β-D-glucopyranosyl-(1→3)-β-D-xylopyranosyl-(1→4)-[(1→2)-β-D-xylopyranosyl]-β-D-quinovopyranosyl-(1→2)-4-O-sodium sulfate-β-D-xylopyranosyl}-holost-7-en-23R,16β-hemiketal], in [1], the “Hemolytic action (in words)” value was “moderately hemolytic” and the “ED50, Erythrocytes” value came to 16.34 ± 0.34 µM. The “Activity against cancer cells (in words)” value in [9] is “inactive”. This molecule also had a half-inhibitory concentration (IC50) at 24 h in data set [5] of 38.6 ± 1.05 µM.
For the molecule `COC1C(O)C(CO)OC(OC2C(O)COC(OC3C(C)OC(OC4C(OC5CCC6(C)C7CCC89C(=O)OC%10(C)C(O)C(O)(CC(C)C)OC(CC8(C)C7=CCC6C5(C)C)C%109)OCC(OS(=O)(=O)O)C4O)C(OC4OCC(O)C(O)C4O)C3O)C2O)C1O` [djakonovioside B4 (7), 3β-O-{3-O-methyl-β-D-glucopyranosyl-(1→3)-β-D-xylopyranosyl-(1→4)-[(1→2)-β-D-xylopyranosyl]-β-D-quinovopyranosyl-(1→2)-4-O-sodium sulfate-β-D-xylopyranosyl}-22S-hydroxyholost-7-en-23R,16β-hemiketal], the “Hemolytic action (in words)” value in [1] is on record as “moderately hemolytic”. The “ED50, Erythrocytes” value in data set [1] is recorded as 17.07 ± 1.15 µM. Further, the IC50 at 24 h in [3], in data set [6], in data set [7], in data set [8] and in [5] was over 50 µM each time. The “Activity against cancer cells (in words)” value in data set [9] was “inactive”.
